≈ marks a conversion by molar mass, not a printed value. Entries after “also recorded” stand apart in the source; their conditions may differ. Counter-ions that a name gives are not always drawn. Like-named read-outs stand apart in the source and are kept apart here.
Columns and labels:
[1] = Equilibrium moisture study in desiccators with saturated salt solutions (KF, XRD); type: physicochemical; details: Sample F incubated at room temperature, 20 days; listed as sesquihydrate
Experimental: As a result, an equilibrium moisture study using desiccators containing saturated salt solutions for humidity control was performed. […] Samples were periodically assayed by KF titration to give the kinetic profiles. XRD analysis was performed at the end of 20 days. The data is summarized in Table 8 with kinetic and equilibrium data plotted in FIGS. 18 and 19.

[2] = Dynamic Vapor Sorption (DVS) analysis; type: physicochemical; details: room temperature, 6-hour equilibration period
From the text: Sample F was subject to Dynamic Vapor Sorption (DVS) analysis at room temperature. The sample was first analyzed by Karl Fischer (KF) titration containing initial moisture content of 3.7% for the monohydrate form. RH cycling started at 50% relative humidity (RH) to 100% RH and down to 0% RH and then back up to 100% RH. A 3-hour/step equilibration period was found insufficient, so the run was repeated with a 6-hour period, which was still not sufficient.
As a result, an equilibrium moisture study using desiccators containing saturated salt solutions for humidity control was performed. Sample F was incubated at 0%, 15%, 31%, 66%, 87%, and 100% RH in room temperature for up to 20 days. Samples were periodically assayed by KF titration to give the kinetic profiles. XRD analysis was performed at the end of 20 days. The data is summarized in Table 8 with kinetic and equilibrium data plotted in FIGS. 18 and 19.

[3] = Solubility in water and 2% Tw80 of samples used in toxicological formulation assessments; type: physicochemical
From the text: Table 6 summarizes various solid-state properties of samples used in toxicological formulation assessments.

[4] = First CACO-2 study, metoprolol as reference; details: human; for recovery: Caco-2, pH 7.4, % Recovery, pH 7.4
[5] = In situ rat perfusion model, metoprolol as reference; type: in vivo; design: Papp: dose or concentration left out as unconfirmed
From the text: The permeability was 18.2 nm/sec, which is higher than the 14.5 nm/sec value obtained for metoprolol (Table 13).

[6] = Second CACO-2 study, propranolol as reference; type: in vitro ADME; details: human, Caco-2; A → B, apical pH 6, basolateral pH 7, without verapamil
From the text: The second CACO-2 study gave somewhat different results (Table 12). Because metoprolol interferes with the LC/MS assay, propranolol, which has a permeability that is […] metoprolol, was used as the FDA calibration compound. The apical pH was controlled at 6 and basolateral pH at pH 7. In addition, verapamil was used as a competitive inhibitor of the Pgp (P-glycoprotein) transporter. The ratios to propranolol were 1.00 and 0.77 with and without verapamil. […] The B→A/A→B ratios were low at 0.3 and 0.3, with and without verapamil, respectively, indicating again no efflux […].

[7] = Solubility of suspensions in Tox formulation (2% Tween 80 in water) by HPLC; type: physicochemical; details: ambient conditions
Experimental: Suspensions of 10 to 20 mg/mL of compound (I) in a Tox (toxicological) formulation (2% Tween 80 in water) using the polymorphs described above were prepared and equilibrated at ambient conditions. The stability of the suspensions was evaluated visually and the solubility of the suspensions was determined by HPLC.
Mobile Phase: A=900 mL/100 mL/0.1 mL Water/Acetonitrile/TFA
B=100 mL/900 mL/0.1 mL Water/Acetonitrile/TFA

[8] = Polymorphic conversion study in aqueous media (2% Tween 80, water); type: physicochemical
From the text: Polymorphic conversion of Form A to Form B was not observed with Sample D in 2% Tween 80 or water.
Polymorph pseudo Form A was obtained from a scaled up preparation of polymorph Form A (Sample E).
The polymorphic conversion appeared to be slower in water than in the 2% Tween suspension, probably due to the lower solubility in water.
DSC data also supported this observation (FIG. 11).

[9] = physchem; details: for solubility at 24 h: aqueous buffer, thermodynamic from solid
Experimental: The pH solubility profile was generated first with Sample D containing polymorph Form A, and then with Sample F containing polymorph Form B, in HCl/NaOH solutions. After 24 hour equilibration, suspensions were centrifuged and the supernatants assayed by HPLC.
The solubility data was analyzed as a function of pH using the Henderson-Hasselbach equation:
Solubility=S0·[10^(PH-pKa)+1],
where S0 is the intrinsic solubility of the free acid.

[10] = Solid state stability; type: physicochemical
[11] = Thermal stress of polymorph Form B (vacuum drying, oven); type: physicochemical
Experimental: Polymorph Form B (Sample F) was stressed with vacuum drying at 40° C.

[12] = Solid state stability; type: physicochemical; details: 40° C./75% RH, open and closed vials, 3 months
Experimental: Sample F containing polymorph Form B was further investigated at 40° C./75% RH using open and closed vials for 3 months. […] Therefore, the monohydrate needs to be stored in hermetically sealed containers in order to prevent conversion to the sesquihydrate.

[13] = vacuum drying at 40° C., 36 hours
[14] = 1-month storage at 40° C./75% RH

CC(C)(Cc1ccc(F)cc1)NC(=O)[C@H](CCC(=O)O)NC(=O)c1ccc(-c2ccccc2)cc1 [Form C, N^2-(1,1′-biphenyl-4-ylcarbonyl)-N^1-[2-(4-fluorophenyl)-1,1-dimethylethyl]-L-α-glutamine]
RH range at which the form is present by XRD [1]: 66-100 % RH | RH range in which the form is stable (DVS) [2]: 30-100 % RH

CC(C)(Cc1ccc(F)cc1)NC(=O)[C@H](CCC(=O)O)NC(=O)c1ccc(-c2ccccc2)cc1 [G, N^2-(1,1′-biphenyl-4-ylcarbonyl)-N^1-[2-(4-fluorophenyl)-1,1-dimethylethyl]-L-α-glutamine]
Solubility, 2% Tw80 [3]: 127 µg/mL (≈ 266 µM) | pH of 2% Tw80 solubility sample [3]: 5.9

COCCc1ccc(OCC(O)CNC(C)C)cc1 (centres unmarked) [Metoprolol, reference compound]
Papp A→B ([4]; Caco-2, pH 7.4): 60.4 ×10⁻⁶ cm/s | recovery ([4]; A → B): 109% | recovery ([4]; B → A): 115% | Papp ([5]; in situ rat perfusion model, read-out: permeability): 1.45 ×10⁻⁶ cm/s | Peff × 10^−1 (μm/sec) ([5]; rat perfusion, 20 μg/mL): 1.45 × 10^−1 μm/sec

CC(C)NCC(O)COc1cccc2ccccc12 (centres unmarked) [Propranolol, reference compound]
Papp A→B [6]: 62.6 ×10⁻⁶ cm/s

CC(C)(Cc1ccc(F)cc1)NC(=O)[C@H](CCC(=O)O)NC(=O)c1ccc(-c2ccccc2)cc1 [Sample 1, N^2-(1,1′-biphenyl-4-ylcarbonyl)-N^1-[2-(4-fluorophenyl)-1,1-dimethylethyl]-L-α-glutamine]
solubility [7]: 201.9 µg/mL (≈ 424 µM)

CC(C)(Cc1ccc(F)cc1)NC(=O)[C@H](CCC(=O)O)NC(=O)c1ccc(-c2ccccc2)cc1 [Sample 2, N^2-(1,1′-biphenyl-4-ylcarbonyl)-N^1-[2-(4-fluorophenyl)-1,1-dimethylethyl]-L-α-glutamine]
solubility [7]: 245.0 µg/mL (≈ 514 µM)

CC(C)(Cc1ccc(F)cc1)NC(=O)[C@H](CCC(=O)O)NC(=O)c1ccc(-c2ccccc2)cc1 [Sample 4, N^2-(1,1′-biphenyl-4-ylcarbonyl)-N^1-[2-(4-fluorophenyl)-1,1-dimethylethyl]-L-α-glutamine]
solubility ([7]; 2% Tween 80 in water (Tox formulation), aqueous with cosolvent or surfactant or cyclodextrin, thermodynamic from solid, read-out: Solubility): 221 µg/mL (≈ 464 µM)

CC(C)(Cc1ccc(F)cc1)NC(=O)[C@H](CCC(=O)O)NC(=O)c1ccc(-c2ccccc2)cc1 [Sample 7, N^2-(1,1′-biphenyl-4-ylcarbonyl)-N^1-[2-(4-fluorophenyl)-1,1-dimethylethyl]-L-α-glutamine]
solubility [7]: 216.4 µg/mL (≈ 454 µM)

CC(C)(Cc1ccc(F)cc1)NC(=O)[C@H](CCC(=O)O)NC(=O)c1ccc(-c2ccccc2)cc1 [Sample A, N^2-(1,1′-biphenyl-4-ylcarbonyl)-N^1-[2-(4-fluorophenyl)-1,1-dimethylethyl]-L-α-glutamine]
Degradation products of compound (I) by HPLC in converted materials ([8]; after conversion in 2% Tween 80 or water): do not contain degradation products

CC(C)(Cc1ccc(F)cc1)NC(=O)[C@H](CCC(=O)O)NC(=O)c1ccc(-c2ccccc2)cc1 [Sample D, N^2-(1,1′-biphenyl-4-ylcarbonyl)-N^1-[2-(4-fluorophenyl)-1,1-dimethylethyl]-L-α-glutamine]
Solubility, 2% Tw80 [3]: 468 µg/mL (≈ 982 µM) | pH of 2% Tw80 solubility sample [3]: 5.4 | Solubility, Water [3]: 37 µg/mL (≈ 77.6 µM) | pH of water solubility sample [3]: 5.5 | solubility at 24 h ([9]; Solubility at pH<4): ~4.5 µg/mL (≈ 9.44 µM) | Polymorphic conversion ([8]; 2% Tween 80/water suspension, overnight): not observed; also recorded: did not undergo polymorphic conversion | Polymorphic conversion / Polymorph Form after stirring ([8]; suspension 100 mg/mL in water, overnight (~18 hr), ambient conditions): not observed; also recorded: did not undergo polymorphic conversion | Chemical stability, solid state ([10]; 14-day storage at room temperature, in temperatures up to 80° C., and in a light box (510 fc)): demonstrated chemical stability

CC(C)(Cc1ccc(F)cc1)NC(=O)[C@H](CCC(=O)O)NC(=O)c1ccc(-c2ccccc2)cc1 [Sample F, N^2-(1,1′-biphenyl-4-ylcarbonyl)-N^1-[2-(4-fluorophenyl)-1,1-dimethylethyl]-L-α-glutamine]
Solubility, 2% Tw80 [3]: 217 µg/mL (≈ 455 µM) | pH of 2% Tw80 solubility sample [3]: 5.9 | Solubility, Water [3]: 99 µg/mL (≈ 208 µM) | pH of water solubility sample [3]: 7.6 | solubility at 24 h ([9]; Solubility at pH<4 (below HPLC detection limit)): < 0.011 µg/mL | Conversion of monohydrate to anhydrate ([11]; 100° C. oven, 23 hours): convert completely to the anhydrate | Conversion of monohydrate to anhydrate [11, 13]: did not convert to the anhydrate | Water retained [11, 13]: 2.95% | Polymorphic conversion (DSC and XRD) [10, 14]: polymorphic conversion from Form B to Form C | Water content [10, 14]: 5.4% | Chemical stability, solid state [12]: chemically stable

CC(C)(Cc1ccc(F)cc1)NC(=O)[C@H](CCC(=O)O)NC(=O)c1ccc(-c2ccccc2)cc1 [sodium salt, N^2-(1,1′-biphenyl-4-ylcarbonyl)-N^1-[2-(4-fluorophenyl)-1,1-dimethylethyl]-L-α-glutamine]
Solubility at pH 12.8 ([9]; HCl/NaOH solutions, 24 hour equilibration, HPLC): 4.7 mg/mL

— patent US20100216886A1, “POLYMORPHS OF N2-(1,1'-BIPHENYL-4-YLCARBONYL)-N1-[2-(4-FLUOROPHENYL)-1,1-DIMETHYLETHYL]-L-ALPHA-GLUTAMINE” (Wyeth, priority 2006, published 2010)
